Here are results for nine compounds from US20180098959A1, “METHODS FOR TREATING CANCER” (BOSTON BIOMEDICAL, INC., priority 2015, published 2018).

“Also recorded” adds a separate entry of the source. Read-outs that look alike come from different tables or passages of the source.

One assay concerns cancer stem cells. Put plainly: effects on cancer stem cells with and without 5-fluorouracil. It counts as cell-based. To be noted: FIG. 7. From the text: The effects on cancer stem cells of 2-acetylnaphtho[2,3-b]furan-4,9-dione was also examined with and without 5-fluorouracil by using methods similar to those disclosed in U.S. pre-grant Publication No. 2012/0252763, Example 3.

For a further assay, the system named is FaDu cancer stem cells. Put plainly: stemness gene expression versus chemo- and targeted therapeutics. To be noted: 24 hours, 2-acetylnaphtho[2,3-b]furan-4,9-dione 2 mM, sunitinib 20 mM, gemcitabine 2 mM, carboplatin 32 mM, FIGS. 4(A)-(D). Type of assay: cell-based. How it is done:
FIGS. 4(A)-(D) depict FaDu cancer stem cells that were treated for 24 hours with DMSO and: (i) 2-acetylnaphtho[2,3-b]furan-4,9-dione (2 mM) (FIG. 4(A)), (ii) sunitinib (20 mM) (FIG. 4(B)), (iii) gemcitabine (2 mM) (FIG. 4(C)), or (iv) carboplatin (32 mM) (FIG. 4(D)).

In another assay the test system is mCRC. To be noted: Single Agent, panitumumab value for K-Ras WT, cited from earlier work.
Another assay concerns p-Stat3 and β-catenin. Put plainly: cancer stem cell markers in cancer xenograft models (immunofluorescence). It counts as in vivo, athymic nude mice. As to conditions: cancer xenograft tumor model, tumors harvested after first dosing; FIG. 6. How it is done:
The effects of 2-acetylnaphtho[2,3-b]furan-4,9-dione on cancer stem cell markers was also examined in cancer xenograft models with and without irinotecan. Human cancer cells were subcutaneously implanted into the right flank of 5-7 weeks old female athymic nude mice. When tumor size reached 200 mm^3, animals were treated with 2-acetylnaphtho[2,3-b]furan-4,9-dione, irinotecan, or a combination of 2-acetylnaphtho[2,3-b]furan-4,9-dione and irinotecan. Tumors were harvested after first dosing.
The harvested tissues were fixed in 3.7% neutral buffered formaldehyde at 4° C. for overnight. The paraffin was embedded, cut to about 5 microns, and affixed onto positively charged slides. After being baked and de-paraffinized, the slides with tumor or control tissues were incubated in 10 mM Sodium Citrate (pH 6.0) for 10 minutes. After antigen retrieval, slides were probed with primary antibodies P-STAT3 (rabbit, Cell Signaling, 1:100), 13-Catenine (mouse, Santa Cruz, 1:400) at 4° C. overnight, and then Alexa Fluor fluorescent dyes-conjugated secondary antibodies (1:500, Invitrogen). After mounting with ProLong mounting medium with DAPI (Invitrogen), the slides were examined under a Zeiss fluorescence microscope with 20× objective, and analyzed with Zen software.

Regarding “5-fluorouracil and 2-acetylnaphtho[2,3-b]furan-4,9-dione”, in the assay with cancer stem cells (versus 5-fluorouracil alone and both agents alone), the “effect of the combination on cancer stem cells / cancer stem cell growth” value is “attenuated; also recorded: greater than additive effect”.

`O=c1[nH]cc(F)c(=O)[nH]1` [5-fluorouracil, reference compound]: in the assay on cancer stem cells, the “increase in the number of cancer stem cells compared to control cells” value is recorded as “approximately 3 fold”. Also, the “expression of self-renewal / CSC genes (β-Catenin, Nanog, Smo, Sox2)” value (“expression of self-renewal / CSC genes” for short) in the assay on FaDu cancer stem cells is given as “increased CSC gene expression in certain cases”.

As to `CCCCCOC(=O)Nc1nc(=O)n([C@@H]2O[C@H](C)[C@@H](O)[C@H]2O)cc1F` [Capecitabine, capecitabine], the “Historical DCR (in Evaluable patients with mCRC)” value in the assay on mCRC and in the assay on mCRC (listed as capecitabine) was 15% each time.

Regarding `N.N.O=C([O-])C1(C(=O)[O-])CCC1.[Pt+2]` [carboplatin], in the assay on FaDu cancer stem cells, the “expression of self-renewal / CSC genes” value is recorded as “increased CSC gene expression in certain cases”.

On to `Nc1ccn([C@@H]2O[C@H](CO)[C@@H](O)C2(F)F)c(=O)n1` [gemcitabine], for which the “expression of self-renewal / CSC genes” value with FaDu cancer stem cells was “increased CSC gene expression in certain cases”.

Take `CCc1c2c(nc3ccc(OC(=O)N4CCC(N5CCCCC5)CC4)cc13)-c1cc3c(c(=O)n1C2)COC(=O)[C@]3(O)CC` [irinotecan, reference compound]: in the assay with p-Stat3 and β-catenin, the “staining for stem cell markers (p-Stat3 and β-catenin)” value is given as “enhanced staining”. For the same compound, the “expression of self-renewal / CSC genes” value with FaDu cancer stem cells is “increased CSC gene expression in certain cases”.

Regarding `O=C1[O][Pt]2([NH][C@@H]3CCCC[C@H]3[NH]2)[O]C1=O` [oxaliplatin], the “expression of self-renewal / CSC genes” value with FaDu cancer stem cells was “increased CSC gene expression in certain cases”.

`CNC(=O)c1cc(Oc2ccc(NC(=O)Nc3ccc(Cl)c(C(F)(F)F)c3)c(F)c2)ccn1` [regorafenib]: the “expression of self-renewal / CSC genes” value in the assay with FaDu cancer stem cells is “increased CSC gene expression in certain cases”.

Turning to panitumumab, the results for the “Historical DCR (in Evaluable patients with mCRC)” value in the assay with mCRC and in the assay on mCRC (listed as panitumumab) were 30-40% (K-Ras WT) and 30-40%, respectively.
